Measured values: patent US12318484B2 (priority 2016, dated 2025)

Test system: IL-1B, IL-8, TLR7 and TLR8 mRNA
Type: cell-based, ferrets
Conditions: 100 μM, ferret whole blood

In the case of CL075, the “IL-1B, IL-8, TLR7 and TLR8 mRNA” value is reported as “significant increases”.
